Results reported in patent US10870678B2, “Chiral peptides” (ARCUATE THERAPEUTICS, INC., priority 2016, dated 2020).
Where two headings read alike, the source gives them in different places.

Test system: HepG2 human liver cancer cell line
Experiment: Functional Mitochondrial Toxicity Assay, XFe96 Seahorse (HepG2)
Assay type: cell-based
Method: The present Examples interrogate the two major energy producing pathways in the cell, mitochondrial respiration and glycolysis. HepG2 human liver cancer cell lines were dosed with test compounds and in real time the extracellular oxygen levels and pH were measured using the XFe96 flux analyser (Seahorse Biosciences). XFe Technology uses solid-state sensors to simultaneously measure both oxygen consumption rate (OCR) and extracellular acidification rate (ECAR) to determine effects on oxidative phosphorylation (OXPHOS) and glycolysis simultaneously. The cells were then subjected to sequential exposure to various inhibitors of mitochondrial functional to assess cellular metabolism.
A positive mitochondrial active compound is determined when there is a change in OCR or ECAR in the absence of cytotoxicity. Cytotoxicity was determined when both oxidative phosphorylation (OCR) and glycolysis (ECAR) were inhibited.
OCR is a measurement of oxygen content in extracellular media. Changes in OCR indicate effects on mitochondrial function, and can be bi-directional. A decrease is due to an inhibition of mitochondrial respiration, whilst an increase may indicate an uncoupler, in which respiration is not linked to energy production.
ECAR is the measurement of extracellular proton concentration (pH). An increase in signal means an increase in rate in number of pH ions (Thus decreasing pH value), and seen as an increase in glycolysis. Expressed as a fraction of basal control (rate prior to addition of compound).
Reverse capacity is the measured ability of cells to respond to an increase in energy demand, a reduction indicates mitochondrial dysfunction.
The Mitochondrial Stress Test is a series of sequential additions of compounds to the cells to assess a bioenergetics profile, and effects of test compounds on parameters such as proton leak and research capacity. This was used to assist in understanding potential mechanisms of mitochondrial toxicity. For example, it involves the addition of the follow compounds in this order:
Oligomycin is a known inhibitor of ATP synthase, and prevents the formation of ATP. This provides a measurement of the amount of oxygen consumption related to ATP production and ATP turnover. The addition of Oligomycin results in a decrease in OCR under normal conditions, and residual OCR is related to the natural proton leak.
Carbonyl cyanide 4-(trifluoromethoxy)phenylhydrazine (FCCP) is a protonphore, and is a known uncoupler of oxygen consumption from ATP production. This allows the maximum achievable transfer of electrons and oxygen consumption rate, and provides a measurement of reserve capacity.
Rotenone and antimycin A are known inhibitors of complex I and III of the electron transport chain, respectively. This inhibits electron transport completely, and any residual oxygen consumption is due to non-mitochondrial activity via oxygen requiring enzymes.

[1] = HepG2, read-out: Reserve Capacity AC50

Row | Molecule | Potential Mechanism (HepG2) | Reserve Capacity MEC (HepG2) [µM] | Reserve Capacity ↑↓ (HepG2) | AC50 (HepG2, read-out: ECAR AC50) [µM] | AC50 (HepG2, read-out: OCR AC50) [µM] | AC50 [1] [µM] | also measured
1 | C=C(C)[C@H]1Cc2c(ccc3c2O[C@@H]2COc4cc(OC)c(OC)cc4[C@@H]2C3=O)O1 [Rotenone, reference compound] | ETC | <0.003 | ↓ |  |  |  | ECAR MEC (HepG2): 0.00325 µM; ECAR ↑↓ (HepG2): ↑; OCR MEC (HepG2): <0.003 µM; OCR ↑↓ (HepG2): ↓; AC50 (Homo sapiens, HepG2, read-out: ECAR AC50): 0.496 µM; AC50 (Homo sapiens, HepG2, read-out: OCR AC50): 0.0138 µM; AC50 (Homo sapiens, HepG2, read-out: Reserve Capacity AC50): 0.00349 µM
2 | (D-Arg)(L-Dmt)(L-Lys)(L-Tyr)-NH2 [Peptide I-9] | No effect |  |  | > 100 | > 100 | > 100 | 
3 | (D-Arg)(L-Dmt)(L-Orn)(L-Phe)-NH2 [Peptide I-2] | No effect |  |  | > 100 | > 100 | > 100 | 
4 | (D-Arg)(L-Dmt)(L-Orn)(L-Tyr)-NH2 [Peptide I-10] | No effect |  |  | > 100 | > 100 | > 100 | 
5 | (D-Arg)(L-Leu)(L-Lys)(L-Phe)-NH2 [Peptide I-21] | Other | 62.5 | ↑ | > 100 | > 100 | > 100 | 
6 | (D-Arg)(L-Leu)(L-Orn)(L-Leu)-NH2 [Peptide I-24] | Other | 33.8 | ↑ | > 100 | > 100 | > 100 | 
7 | (D-Arg)(L-Leu)(L-Orn)(L-Phe)-NH2 [Peptide I-23] | Other | 65.9 | ↑ | > 100 | > 100 | > 100 | 
8 | (D-Arg)(L-Phe)(L-Lys)(L-Phe)-NH2 [Peptide I-22] | No effect | 100 | ↑ | > 100 | > 100 | > 100 | 
9 | (D-Arg)(L-Tyr)(L-Orn)(L-Phe)-NH2 [Peptide I-3] | Other |  | ↑ | > 100 | > 100 | > 100 | Reserve Capacity MEC (HepG2, listed as I-3 (1)): 48.5 µM; Reserve Capacity MEC (HepG2, listed as I-3 (2)): 85.3 µM
10 | (D-Leu)(D-Orn)(D-Leu)(L-Orn)-NH2 [Peptide I-37] | Other | <0.1 | ↓ | > 100 | > 100 | 1.11 | OCR MEC (HepG2): 143 µM; OCR ↑↓ (HepG2): ↓
11 | (D-Lys)(L-Dmt)(L-Lys)(L-Phe)-NH2 [Peptide I-6] | Other | 50.3 | ↑ | > 100 | > 100 | > 100 | 
12 | (D-Lys)(L-Dmt)(L-Orn)(L-Phe)-NH2 [Peptide I-7] | No effect |  |  | > 100 | > 100 | > 100 | 
13 | (D-Lys)(L-Leu)(L-Orn)(L-Leu)-NH2 [Peptide I-25] | No effect |  |  | > 100 | > 100 | > 100 | 
14 | (D-Lys)(L-Tyr)(L-Orn)(L-Phe)-NH2 [Peptide I-8] | Other | 79.7 | ↑ | > 100 | > 100 | > 100 | 
15 | (D-Orn)((L-Dmt)(L-Orn)(L-Phe)-NH2 [Peptide I-4] | No effect |  |  | > 100 | > 100 | > 100 | 
16 | (D-Orn)(L-Leu)(L-Orn)(L-Leu)-NH2 [Peptide I-26] | No effect |  |  | > 100 | > 100 | > 100 | 
17 | (D-Orn)(L-Phe)(L-Orn)(L-Phe)-NH2 [Peptide I-27] | No effect |  |  | > 100 | > 100 | > 100 | 
18 | (D-Orn)(L-Tyr)(L-Orn)(L-Phe)-NH2 [Peptide I-5] | Other |  |  | > 100 | > 100 |  | Reserve Capacity MEC (HepG2, listed as I-5 (1)): 15.8 µM; Reserve Capacity ↑↓ (HepG2, listed as I-5 (1)): ↑; AC50 (HepG2, listed as I-5 (1), read-out: Reserve Capacity AC50): > 100 µM; Reserve Capacity MEC (HepG2, listed as I-5 (2)): <0.1 µM; Reserve Capacity ↑↓ (HepG2, listed as I-5 (2)): ↓; AC50 (HepG2, listed as I-5 (2), read-out: Reserve Capacity AC50): 0.954 µM
19 | (D-Phe)(D-Lys)(D-Leu)(L-Arg)-NH2 [Peptide I-34] | Other | <0.1 | ↓ | > 100 | > 100 | 0.957 | 
20 | (D-Phe)(D-Orn)(D-Leu)(L-Arg)-NH2 [Peptide I-35] | Other | <0.1 | ↓ | > 100 | > 100 | 5.28 | 
21 | (D-Phe)(D-Orn)(D-Leu)(L-Orn)-NH2 [Peptide I-36] | Other | 0.139 | ↓ | > 100 | > 100 | 6.45 | 
22 | (D-Phe)(D-Orn)(D-Phe)(L-Orn)-NH2 [Peptide I-38] | No effect |  |  | > 100 | > 100 | > 100 | 
23 | (D-Phe)(D-Orn)(D-Tyr)(L-Arg)-NH2 [Peptide I-16] | Other | 84.5 | ↑ | > 100 | > 100 | > 100 | 
24 | (L-Leu)(L-Orn)(L-Leu)(D-Orn)-NH2 [Peptide I-32] | Other | 0.277 | ↓ | > 100 | > 100 | 9.32 | 
25 | (L-Phe)(L-Lys)(L-Leu)(D-Arg)-NH2 [Peptide I-28] | Other | <0.1 | ↓ | > 100 | > 100 | 1.28 | 
26 | (L-Phe)(L-Lys)(L-Phe)(D-Arg)-NH2 [Peptide I-29] | Other | 0.203 | ↓ | > 100 | > 100 | 4.17 | 
